ChEMBL document CHEMBL3885881, “DrugMatrix”

Species: Rattus norvegicus
Assay: DrugMatrix - Regimen: Daily Repeat
Assay type: toxicity, organism-based, Sprague-Dawley
Design: regimen Daily Repeat, gender Male, age 6-8 weeks
Conditions: in vivo, po, route oral GAVAGE, vehicle 100 % WATER; for ABSOLUTE BASOPHIL / ABSOLUTE EOSINOPHIL / ABSOLUTE LYMPHOCYTE / ABSOLUTE MONOCYTE / ABSOLUTE SEGMENTED NEUTROPHIL / BASOPHIL / EOSINOPHIL / ERYTHROCYTE COUNT / HEMATOCRIT / HEMOGLOBIN / LEUKOCYTE COUNT / LYMPHOCYTE / MEAN CORPUSCULAR HEMOGLOBIN / MEAN CORPUSCULAR HEMOGLOBIN CONCENTRATION / MEAN CORPUSCULAR VOLUME / MONOCYTE / NEUTROPHIL / NUCLEATED RED BLOOD CELLS / PLATELET COUNT: tissue Blood; for ALANINE AMINOTRANSFERASE / ALBUMIN / ALKALINE PHOSPHATASE / ASPARTATE AMINOTRANSFERASE / BLOOD UREA NITROGEN / CARBON DIOXIDE / CHLORIDE / CHOLESTEROL / CREATINE PHOSPHOKINASE / CREATININE / GLUCOSE / LACTATE DEHYDROGENASE / LIPASE / PHOSPHORUS / POTASSIUM / SODIUM / TOTAL BILIRUBIN / TOTAL PROTEIN / URIC ACID: tissue Plasma
[1] = 58 mg/kg, 120 h, dose level Low, time 5 day
[2] = 1400 mg/kg, 72 h, dose level High, time 3 day
[3] = 1400 mg/kg, 120 h, dose level High, time 5 day

## Cc1cn([C@H]2C=C[C@@H](CO)O2)c(=O)[nH]c1=O [STAVUDINE]
[1]
  ABSOLUTE BASOPHIL: 0 CELLS/uL
  ABSOLUTE EOSINOPHIL: 94.33 CELLS/uL
  ABSOLUTE LYMPHOCYTE: 9260.33 CELLS/uL
  ABSOLUTE MONOCYTE: 0 CELLS/uL
  ABSOLUTE SEGMENTED NEUTROPHIL: 878.67 CELLS/uL
  BASOPHIL: 0%
  EOSINOPHIL: 1%
  ERYTHROCYTE COUNT: 5.68 x10E6/uL
  HEMATOCRIT: 35.3%
  HEMOGLOBIN: 13.67 G/DL
  LEUKOCYTE COUNT: 10.23 x10E3/uL
  LYMPHOCYTE: 90%
  MEAN CORPUSCULAR HEMOGLOBIN: 24.17 pg
  MEAN CORPUSCULAR HEMOGLOBIN CONCENTRATION: 38.73 G/DL
  MEAN CORPUSCULAR VOLUME: 62.33 fL
  MONOCYTE: 0%
  NEUTROPHIL: 9%
  NUCLEATED RED BLOOD CELLS: 0.33 /100WBC
  PLATELET COUNT: 999.33 x10E3/uL
  ALANINE AMINOTRANSFERASE: 49 u/L
  ALBUMIN: 4.1 G/DL
  ALKALINE PHOSPHATASE: 425 u/L
  ASPARTATE AMINOTRANSFERASE: 86.33 u/L
  BLOOD UREA NITROGEN: 14.33 mg/dL
  CARBON DIOXIDE: 28.33 mmol/L
  CHLORIDE: 104 MEQ/L
  CHOLESTEROL: 72.33 mg/dL
  CREATINE PHOSPHOKINASE: 506.33 u/L
  CREATININE: 0.15 mg/dL
  GLUCOSE: 173.33 mg/dL
  LACTATE DEHYDROGENASE: 155.33 u/L
  LIPASE: 8.67 u/L
  PHOSPHORUS: 11.87 mg/dL
  POTASSIUM: 5.3 MEQ/L
  SODIUM: 146.7 MEQ/L
  TOTAL BILIRUBIN: 0.17 mg/dL
  TOTAL PROTEIN: 6.03 G/DL
  URIC ACID: 0.67 mg/dL
[2]
  ABSOLUTE BASOPHIL: 0 CELLS/uL
  ABSOLUTE EOSINOPHIL: 0 CELLS/uL
  ABSOLUTE LYMPHOCYTE: 15246 CELLS/uL
  ABSOLUTE MONOCYTE: 148.33 CELLS/uL
  ABSOLUTE SEGMENTED NEUTROPHIL: 1072.33 CELLS/uL
  BASOPHIL: 0%
  EOSINOPHIL: 0%
  ERYTHROCYTE COUNT: 5.98 x10E6/uL
  HEMATOCRIT: 37.4%
  HEMOGLOBIN: 14.87 G/DL
  LEUKOCYTE COUNT: 16.47 x10E3/uL
  LYMPHOCYTE: 92.67%
  MEAN CORPUSCULAR HEMOGLOBIN: 24.9 pg
  MEAN CORPUSCULAR HEMOGLOBIN CONCENTRATION: 39.77 G/DL
  MEAN CORPUSCULAR VOLUME: 62.67 fL
  MONOCYTE: 1%
  NEUTROPHIL: 6.33%
  NUCLEATED RED BLOOD CELLS: 0 /100WBC
  PLATELET COUNT: 998.33 x10E3/uL
  ALANINE AMINOTRANSFERASE: 113.67 u/L
  ALBUMIN: 3.93 G/DL
  ALKALINE PHOSPHATASE: 510.67 u/L
  ASPARTATE AMINOTRANSFERASE: 191 u/L
  BLOOD UREA NITROGEN: 12.33 mg/dL
  CARBON DIOXIDE: 27 mmol/L
  CHLORIDE: 100.67 MEQ/L
  CHOLESTEROL: 97.33 mg/dL
  CREATINE PHOSPHOKINASE: 237.67 u/L
  CREATININE: 0.15 mg/dL
  GLUCOSE: 155 mg/dL
  LACTATE DEHYDROGENASE: 355 u/L
  LIPASE: 11.33 u/L
  PHOSPHORUS: 12.77 mg/dL
  POTASSIUM: 6.93 MEQ/L
  SODIUM: 142.73 MEQ/L
  TOTAL BILIRUBIN: 0.23 mg/dL
  TOTAL PROTEIN: 5.63 G/DL
  URIC ACID: 1.47 mg/dL
[3]
  ABSOLUTE BASOPHIL: 0 CELLS/uL
  ABSOLUTE EOSINOPHIL: 247.33 CELLS/uL
  ABSOLUTE LYMPHOCYTE: 16216.67 CELLS/uL
  ABSOLUTE MONOCYTE: 311.33 CELLS/uL
  ABSOLUTE SEGMENTED NEUTROPHIL: 2358 CELLS/uL
  BASOPHIL: 0%
  EOSINOPHIL: 1.33%
  ERYTHROCYTE COUNT: 5.64 x10E6/uL
  HEMATOCRIT: 35.57%
  HEMOGLOBIN: 13.87 G/DL
  LEUKOCYTE COUNT: 19.13 x10E3/uL
  LYMPHOCYTE: 84.67%
  MEAN CORPUSCULAR HEMOGLOBIN: 24.6 pg
  MEAN CORPUSCULAR HEMOGLOBIN CONCENTRATION: 39 G/DL
  MEAN CORPUSCULAR VOLUME: 63.1 fL
  MONOCYTE: 1.67%
  NEUTROPHIL: 12.33%
  NUCLEATED RED BLOOD CELLS: 0 /100WBC
  PLATELET COUNT: 1296.67 x10E3/uL
  ALANINE AMINOTRANSFERASE: 50.33 u/L
  ALBUMIN: 4.17 G/DL
  ALKALINE PHOSPHATASE: 429.33 u/L
  ASPARTATE AMINOTRANSFERASE: 75 u/L
  BLOOD UREA NITROGEN: 14.67 mg/dL
  CARBON DIOXIDE: 23 mmol/L
  CHLORIDE: 102 MEQ/L
  CHOLESTEROL: 81.67 mg/dL
  CREATINE PHOSPHOKINASE: 207 u/L
  CREATININE: 0.21 mg/dL
  GLUCOSE: 162 mg/dL
  LACTATE DEHYDROGENASE: 128.33 u/L
  LIPASE: 11.67 u/L
  PHOSPHORUS: 11 mg/dL
  POTASSIUM: 5.59 MEQ/L
  SODIUM: 145 MEQ/L
  TOTAL BILIRUBIN: 0.2 mg/dL
  TOTAL PROTEIN: 5.8 G/DL
  URIC ACID: 1.77 mg/dL
